Experimental data taken from patent US8735140B2, “Preservation and composition of bioprocess algae for production of lipids, seedstock, and feed” (Kuehnle AgroSystems, Inc., priority 2008, dated 2014).

Legend:
Dunaliella cells = test: Trehalose loading of Dunaliella, shelf storage and recovery in fresh medium; format: cell-based, D. salina; conditions: 0.5 and 1.0 M trehalose
Procedure: First, cells in log phase are spun down at 1500×g for 10 minutes. Supernatant is decanted and the pellet is gently re-suspended in a minimal volume of medium and placed in a 1 L flask. The cell count of the slurry is 1.776×10^8 cells/ml. Next, four 50 ml tubes are prepared with aliquots of 21 ml of slurry in each tube prior to re-suspension, in a defined extracellular concentration of α-trehalose (α-D-glycosyl-α-D-glycosylpyranoside, Hayashibara Co., in Melis medium at a salinity of 1.0 M NaCl (referred to as 1M Melis). The cells are then spun down again and the pellets are re-suspended in 200 ml of treatment medium, that is, 1M Melis with or without added trehalose. The four preservation treatments in 1M Melis are performed in the following four sets in triplicate: no trehalose ([…]), 0.5M trehalose, 1.0M trehalose, and 2.0M trehalose. The cell density after re-suspension is at 1.865×10^7 cells/ml. During the re-suspension of cell pellets in 1M Melis, 2.0M trehalose, the pellet is not completely broken apart, yielding visible clumps in the suspension. After the re-suspension, cells are transferred to 250 ml flasks and left on the shelf at a temperature of 23-27° C. and light Intensity <5 μE/m^2-sec, without any agitation or aeration. […]

algae cells = test: Trehalose treatment, viability at room temperature under low light; format: cell-based
Procedure: Cells in 40 ml flask cultures are grown to mid-log phase with a density of between 3×10^6 and 3×10^7 cells/ml, and are centrifuged. Culture medium is removed after centrifugation, resulting in more concentrated algae cells. Cells are then re-suspended in ideal glass solution consisting of fresh culture medium and trehalose at a concentration of 0.1M, 0.3M, and 0.5M (dihydrate trehalose 100 from Hayashibara Co. Ltd, Okayama, Japan), respectively, and left overnight with mild agitation. Cells are centrifuged again to remove the ideal glass solution the next day, and are re-suspended in fresh or salt water without any nutrient. The cell density of the resulting suspension is determined prior to storage under the various treatments. (Some cells were also treated with a 0.5M sorbitol solution). Cell viability is determined by comparing the cell growth in control set with the experimental set. Specifically, cell counts are performed on all samples. The averaged density value (in cells per ml) for all the cultures after treatment is defined as “rejuvenation cell count.” In some samples, the percent recovery of cells immediately after storage is also determined. The formulae are illustrated as follows: Growth=(rejuvenation cell count)/(initial cell count) Cell recovery after storage=(cell density after storage)/(initial cell density), with controls set at 100% cell recovery. […]

How did the Functional recovery (Dunaliella cells; 4.5-week period, FIG. 3) turn out when `OC[C@H]1O[C@H](O[C@H]2O[C@H](CO)[C@@H](O)[C@H](O)[C@H]2O)[C@H](O)[C@@H](O)[C@@H]1O` [trehalose, α-D-glycosyl-α-D-glycosylpyranoside] was run?
The Functional recovery was “exhibit functional recovery”.

What about the Functional recovery (Dunaliella cells; 8-week period, no cell growth observed) of the same molecule?
Its Functional recovery is “negligible functional recovery”.

What about the “Period for which cells remain viable” value (algae cells) of the same molecule?
Its value is “at least 5 months”.
